Literature values as cited in patent US20040258838A1, “Method for preserving wood materials using precipitated copper compounds” (priority 2003, published 2004).

Test system: fish
Conditions: essentially 1 milligram per liter

## [Cu] [copper]
  level at which copper is extremely toxic to fish: below 1 part per million
